SMILES strings stand for the structures. Structures can show the parent of a compound that is named as a salt.

One may read the melting point as the temperature, or range, at which the solid turns liquid. The molecule `O=C(Nc1cccc2c1C(=O)c1c-2n[nH]c1C1CCN(C(=O)Oc2ccccc2)CC1)NN1CCOCC1` (as salt: TFA) displayed a melting point of 250 °C.
Then `O=C(Nc1cccc2c1C(=O)c1c-2n[nH]c1-c1ccc(C(=O)NC2CN3CCC2CC3)s1)NN1CCOCC1` (stereo not shown) (as salt: TFA), with 245 °C.
As for `O=C(Nc1cccc2c1C(=O)c1c-2n[nH]c1[C@H]1CC[C@H](C(=O)O)CC1)NN1CCOCC1` (as salt: TFA) [Example CCC, 3-(trans-4-carboxylcyclohexyl)-5-(morpholinocarbamoylamino)indeno[1,2-c]pyrazol-4-one], the figure is 264 °C; as for `COC(=O)[C@H]1CC[C@H](c2[nH]nc3c2C(=O)c2c(NC(=O)NN4CCOCC4)cccc2-3)CC1` (as salt: TFA) [Example CCCI, 3-(trans-4-(methoxycarbonyl)cyclohexyl)-5-(morpholinocarbamoylamino)indeno[1,2-c]pyrazol-4-one], 259 °C.
On to `CN(C)C1CCN(C(=O)[C@H]2CC[C@H](c3[nH]nc4c3C(=O)c3c(NC(=O)NN5CCOCC5)cccc3-4)CC2)C1` (stereo partly drawn) (as salt: TFA) [Example CCCII, 3-(trans-4-(3-(dimethylamino)pyrrolidinocarbonyl)cyclohexyl)-5-(morpholinocarbamoylamino)indeno[1,2-c]pyrazol-4-one], for which the melting point came out at 191 °C.
As for `O=C(Nc1cccc2c1C(=O)c1c-2n[nH]c1[C@H]1CC[C@H](C(=O)N2CCNCC2)CC1)NN1CCOCC1` (as salt: TFA) [Example CCCIII, 3-(trans-4-(piperazinocarbonyl)cyclohexyl)-5-(morpholinocarbamoylamino)indeno[1,2-c]pyrazol-4-one], the figure is 248 °C; as for `CN1CCN(C(=O)[C@H]2CC[C@H](c3[nH]nc4c3C(=O)c3c(NC(=O)NN5CCOCC5)cccc3-4)CC2)CC1` (as salt: TFA) [Example CCCIV, 3-(trans-4-(4-methylpiperazinocarbonyl)cyclohexyl)-5-(morpholinocarbamoylamino)indeno[1,2-c]pyrazol-4-one], 228 °C.
Then `COC[C@H]1CCCN1NC(=O)Nc1cccc2c1C(=O)c1c-2n[nH]c1-c1ccc(C(=O)O)s1` (as salt: TFA) [Example CCII, 3-(5-carboxyl-2-thienyl)-5-(2(R)-(methoxymethyl)pyrrolidinocarbamoylamino)indeno[1,2-c]pyrazol-4-one], with 258 °C.
Regarding `COC[C@H]1CCCN1NC(=O)Nc1cccc2c1C(=O)c1c-2n[nH]c1-c1ccc(C(=O)N2CCN(C)CC2)s1` (as salt: TFA) [Example CCIII, 3-(5-(4-methylpiperazinocarbonyl)-2-thienyl)-5-(2(R)-(methoxymethyl)pyrrolidinocarbamoylamino)indeno[1,2-c]pyrazol-4-one], the melting point amounted to 181 °C.
As for `COC[C@H]1CCCN1NC(=O)Nc1cccc2c1C(=O)c1c-2n[nH]c1-c1ccc(C(=O)N2CCNCC2)s1` (as salt: TFA) [Example CCIV, 3-(5-piperazinocarbonyl-2-thienyl)-5-(2(R)-(methoxymethyl)pyrrolidinocarbamoylamino)indeno[1,2-c]pyrazol-4-one], the figure is over 300 °C; as for `O=C(Nc1cccc2c1C(=O)c1c-2n[nH]c1-c1ccc(N2CCC(N3CCCCC3)CC2)cc1)NN1CCOCC1` (as salt: TFA) [Example CCL, 3-(4-(4-piperidinopiperidino)phenyl)-5-(morpholinocarbamoylamino)indeno[1,2-c]pyrazol-4-one], 233 °C; as for `O=C(Nc1cccc2c1C(=O)c1c-2n[nH]c1-c1ccc(N2CCC(N3CCCC3)CC2)cc1)NN1CCOCC1` (as salt: TFA) [Example CCLI, 3-(4-(4-pyrrolidinopiperidino)phenyl)-5-(morpholinocarbamoylamino)indeno[1,2-c]pyrazol-4-one], 247 °C.
As for `CCN(CC)C1CCN(c2ccc(-c3[nH]nc4c3C(=O)c3c(NC(=O)NN5CCOCC5)cccc3-4)cc2)CC1` (as salt: TFA) [Example CCLII, 3-(4-(4-(N,N-diethylamino)piperidino)phenyl)-5-(morpholinocarbamoylamino)indeno[1,2-c]pyrazol-4-one], the melting point came out at 251 °C.
Then `CC(=N)N1CCN(c2ccc(-c3[nH]nc4c3C(=O)c3c(NC(=O)NN5CCOCC5)cccc3-4)cc2)CC1` (as salt: TFA) [Example CCLIII, 3-(4-(4-(1-iminoethyl)piperazino)phenyl)-5-(morpholinocarbamoylamino)indeno[1,2-c]pyrazol-4-one], with 240 °C; and `CCc1[nH]nc2c1C(=O)c1c(NC(=O)NN3CCOCC3)cccc1-2` (as salt: TFA) [Example CCLIX, 3-ethyl-5-(morpholinocarbamoylamino)indeno[1,2-c]pyrazol-4-one], with 253 °C; and `CCc1[nH]nc2c1C(=O)c1c(NC(=O)NN3CCN(C)CC3)cccc1-2` (as salt: TFA) [Example CCLVI, 3-ethyl-5-(4-methylpiperazinocarbamoylamino)indeno[1,2-c]pyrazol-4-one], with 244 °C.
Then `CCOC(=O)N1CCC(c2[nH]nc3c2C(=O)c2c(NC(=O)NN4CCOCC4)cccc2-3)CC1` (as salt: TFA) [Example CCLXII, 3-(1-ethoxycarbonylpiperidin-4-yl)-5-(morpholinocarbamoylamino)indeno[1,2-c]pyrazol-4-one], with 206 °C.
As for `O=C(Nc1cccc2c1C(=O)c1c-2n[nH]c1C1CCN(C(=O)n2ccnc2)CC1)NN1CCOCC1` (as salt: TFA) [Example CCLXIV, 3-(1-(imidazol-1-ylcarbonyl)piperidin-4-yl)-5-(morpholinocarbamoylamino)indeno[1,2-c]pyrazol-4-one], the figure is 202 °C.
As to `CN(C)C1CCN(C(=O)N2CCC(c3[nH]nc4c3C(=O)c3c(NC(=O)NN5CCOCC5)cccc3-4)CC2)CC1` (as salt: TFA) [Example CCLXIX, 3-(1-(4-(dimethylamino)piperidinocarbonyl)piperidin-4-yl)-5-(morpholinocarbamoylamino)indeno[1,2-c]pyrazol-4-one], the melting point amounted to 172 °C.
Then `O=C(Nc1cccc2c1C(=O)c1c-2n[nH]c1C1CCN(C(=O)c2cccs2)CC1)NN1CCOCC1` (as salt: TFA) [Example CCLXV, 3-(1-(2-thienylcarbonyl)piperidin-4-yl)-5-(morpholinocarbamoylamino)indeno[1,2-c]pyrazol-4-one], with 218 °C; and `NC(=O)N1CCC(c2[nH]nc3c2C(=O)c2c(NC(=O)NN4CCOCC4)cccc2-3)CC1` (as salt: TFA) [Example CCLXVI, 3-(1-carbamoylpiperidin-4-yl)-5-(morpholinocarbamoylamino)indeno[1,2-c]pyrazol-4-one], with 258 °C.
Take `O=C(Nc1cccc2c1C(=O)c1c-2n[nH]c1C1CCN(C(=O)N2CCNCC2)CC1)NN1CCOCC1` (as salt: TFA) [Example CCLXX, 3-(1-(piperazinocarbonyl)piperidin-4-yl)-5-(morpholinocarbamoylamino)indeno[1,2-c]pyrazol-4-one]: the melting point worked out at 195 °C.

Values taken from patent US6407103B2, “Indeno [1,2-c] pyrazol-4-ones and their uses” (Bristol-Myers Squibb Pharma Company, priority 1998, dated 2002).
